Reference: patent US10968248B2, “Trinucleotide mRNA cap analogs” (c/o Arcturus Therapeutics, Inc., priority 2016, dated 2021)

What was measured:
[1] = Protein expression in plasma (ELISA) after i.v. delivery of m^7G(5′)p3-RNA to mice; assay type: in vivo
[2] = molecular target: T7 RNA polymerase (Escherichia phage T7, UniProt P00573); conditions: 2 hrs at 37 C, concluded from protein expression in mice
Experimental: For ARCA and ARC CAP1 mRNAs, in vitro transcription was performed using the standard protocol (see Table, below). All of components were mixed, and T7 RNA polymerase (E2040 from NEB) was added in the reaction mixture. The transcription reaction was incubated for 2 hrs at 37 C. After 2 hrs of reaction time, DNASEI (NEB) and buffer were added to the transcription reaction and incubated for 15 mins at 37 C. The crude of reaction mix was purified using RNA purification kit (Macherey-Nagel).

[3] = system: rabbit reticulocyte lysate system; conditions: mRNA transcribed with the cap analog; cited from earlier work
[4] = in vitro transcription initiated with the cap analog; cited from earlier work

T7 RNA polymerase, sequence (P00573 whole entry): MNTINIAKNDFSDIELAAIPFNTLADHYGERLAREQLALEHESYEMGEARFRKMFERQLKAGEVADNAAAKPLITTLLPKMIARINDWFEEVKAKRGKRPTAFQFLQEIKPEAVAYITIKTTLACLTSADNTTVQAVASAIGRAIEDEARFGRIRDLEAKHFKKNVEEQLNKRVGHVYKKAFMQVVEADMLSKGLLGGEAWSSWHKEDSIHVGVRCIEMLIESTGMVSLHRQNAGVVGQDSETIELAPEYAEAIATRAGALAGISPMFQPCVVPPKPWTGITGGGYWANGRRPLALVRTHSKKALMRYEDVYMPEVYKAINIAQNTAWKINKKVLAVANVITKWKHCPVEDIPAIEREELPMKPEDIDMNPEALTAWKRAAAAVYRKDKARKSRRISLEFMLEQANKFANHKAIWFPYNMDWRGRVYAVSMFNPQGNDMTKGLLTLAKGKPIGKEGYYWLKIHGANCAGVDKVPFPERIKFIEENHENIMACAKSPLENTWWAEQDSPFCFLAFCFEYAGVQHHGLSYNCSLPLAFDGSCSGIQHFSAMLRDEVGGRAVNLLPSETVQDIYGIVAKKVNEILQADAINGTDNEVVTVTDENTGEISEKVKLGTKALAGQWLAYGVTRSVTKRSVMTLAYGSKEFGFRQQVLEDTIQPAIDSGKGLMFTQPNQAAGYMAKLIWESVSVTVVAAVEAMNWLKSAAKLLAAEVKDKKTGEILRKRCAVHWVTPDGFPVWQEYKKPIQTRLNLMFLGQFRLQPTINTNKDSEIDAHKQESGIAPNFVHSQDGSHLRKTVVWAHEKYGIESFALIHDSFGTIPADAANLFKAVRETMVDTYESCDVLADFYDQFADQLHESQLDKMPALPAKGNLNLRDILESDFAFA

| Structure (SMILES) | efficiency of translation of capped RNA ([1]; compared with enzymatically (vaccinia) capped RNA) | amount of protein expression ([1]; m^7G(5′)p3-RNA 0.3 mg/kg i.v., male mice, plasma 6 hours post dose, ELISA, FIG. 16) | efficiency of transcription [2] | translational efficiency (rank order of cap structures) [3] | caps oriented in the reverse direction / reverse-orientation transcript [4] |
| --- | --- | --- | --- | --- | --- |
| CO[C@@H]1[C@H](OP(=O)(O)OC[C@H]2O[C@@H](n3cnc4c(=O)[nH]c(N)nc43)[C@H](O)[C@@H]2O)[C@@H](COP(=O)(O)OP(=O)(O)OP(=O)([O-])OC[C@H]2O[C@@H]([n+]3cn(C)c4c(=O)[nH]c(N)nc43)[C@H](O)[C@@H]2O)O[C@H]1n1cnc2c(N)ncnc21 [ARC CAP1, m^7G(5′)p3AmpG] | just as efficient translated as enzymatically capped RNA | greater than ARCA | substantially improved compared to dinucleotide ARCA | greatest |  |
| CO[C@H]1[C@@H](O)[C@H](n2c[n+](C)c3c(=O)[nH]c(N)nc32)O[C@@H]1COP(=O)(O)OP(=O)(O)OP(=O)(O)OC[C@H]1O[C@@H](n2cnc3c(=O)[nH]c(N)nc32)[C@H](O)[C@@H]1O [ARCA, 3′-OMe-m^7G(5′)p3G] |  |  |  |  | without reversal |
| Cn1c[n+]([C@@H]2O[C@H](COP(=O)(O)OP(=O)([O-])OP(=O)(O)OC[C@H]3O[C@@H](n4cnc5c(=O)[nH]c(N)nc54)[C@H](O)[C@@H]3O)[C@@H](O)[C@H]2O)c2nc(N)[nH]c(=O)c21 [m^7G(5′)p3(5′)G] |  |  |  |  | one third to one half of the caps oriented in the reverse direction |
